Measurements reported in patent publication US7189750B2, “Thiazole-based nitric oxide donors having at least two thiazole moieties and uses thereof” (priority 2004, dated 2007).
Entries after “also recorded” stand apart in the source; their conditions may differ.

Experiments:
isolated rat aorta [1] = experiment: In vitro vasorelaxation of epinephrine-contracted rat aortic rings (CCRC); format: cell-based
Text: Male Sprague Dawley rats were anaesthetized using intraperitoneal injection of ketamine and xylazine (50 and 10 milligram per kilogram, respectively) and the thoracic aorta, the large upper portion of the descending aorta, starting at the caudal border of the chest bone, was removed thereafter, while carefully removing the paraadventetial tissue surrounding the vessel. Aortae were cut into rings of 4–5 millimeters and mounted onto the tissue path. The path buffer (Krebs-bicrbonate) was constantly gassed with carbogen and maintained at 37° C. The rings were preloaded under 2 g tension and equilibrated for 90 minutes, while refreshing the buffer every 15 minutes. After stabilization, the rings were contracted with epinephrine (1 μM). Cumulative Concentration-Response Curves (CCRC) were measured for the vasorelaxing effect induced by adding various concentrations, ranging from 10^−10 M to 10^−5 M of Pet-2, Pet-3, Pet-7, Pet-8, Pet-12, Pet-24, Pet-43, Pet-59, Pet-147, Pet-152 and Pet-154, and glyceryltrinitrate (GTN), according to the procedure described in Feelich et al., Molecular Pharmacology, 56:243–253 (1999). The vehicle, which was used for this experiment was water:ethanol:propyleneglycol at proportional ratio of 1:1:1.
The vasorelaxing effect of the thiazole-derived NO-donors according to the present invention was measured on slices of thoracic aorta of rats contracted with epinephrine, as described hereinabove.

isolated rat aorta [2] = experiment: In vitro induction of tolerance and cross-tolerance: vasorelaxation of pre-exposed rat aortic rings; format: cell-based; conditions: for EC50: Rattus norvegicus; for tolerance induction in vitro: rings pre-treated with epinephrine and then with the same compound (0.44 mM)
Method: Aortic rings were prepared as described hereinabove, and were exposed to 0.44 mM GTN (vehicle was water:ethanol:propyleneglycol at proportional ratio of 1:1:1) for 1 hour before CCRC construction, to thereby induce tolerance to nitroglycerine. At the end of the tolerance induction period, rings were thrice washed with the path buffer (Krebs-bicrbonate) every 15 minutes for the following hour and then CCRC for vasorelaxation on GTN-induced tolerance rings were constructed for GTN (pretreated versus untreated rings, FIG. 15), in order to verify the ability to induce and measure GTN tolerance induction in vitro
Attempted induction of tolerance to the NO-donating compounds of the present invention was performed under the same conditions as for GTN. Thus, in an exemplary experiment, rings were exposed to 0.44 mM solution of Pet-3 in the attempt to induce tolerance for Pet-3. CCRC were then measured for the vasorelaxing effect of Pet-3 on a group of rings which were pre-exposed to Pet-3 as to induce tolerance to Pet-3, and for an untreated control group. The above protocol was repeated with Pet-2, Pet-7, Pet-8, Pet-12, Pet-24, Pet-43, Pet-149 and Pet-152.
Cross-tolerance studies were conducted using the same technique described above for measuring vasorelaxation of aortic rings from rats. Two groups of aortic rings samples were pre-treated with GTN, then one group was measured for vasorelaxation by GTN and the second group for vasorelaxation by Pet-12, an exemplary NO-donor according to the present invention. For the opposite cross-tolerance studies, two groups of aortic rings samples were pre-treated with Pet-12, then one group was measured for vasorelaxation by GTN and the second group for vasorelaxation by Pet-12.

[3] = tested on: c-GMP in slices of thoracic aorta of rats; experiment: Cyclic-GMP measurement in aortic rat tissue (radioimmunoassay); format: cell-based; conditions: rat aorta; for cGMP Post-infusion: post-infusion (repeated treatment)
Method: GTN (10^−6 M) was added to the chamber and, 1 minute after exposure to the drug, rings (usually 3–5) were taken, wrapped with aluminum foil and immediately frozen in liquid nitrogen for storage. Control sample group was treated with the vehicle solution only. At the time of analysis, rings were thawed, blotted over a dry gauzed and weighted. A known weight of tissue was homogenized in 2 ml ice-cold modified Hank's balanced salt solution containing (in gram/liter) NaCl 8; KCl 0.4; glucose 1; KH2PO4 0.06; Na2HPO4 0.047; Phenol red 0.017 and further containing 25 mM EDTA (disodium salt). The homogenate was centrifuged at 4000 g (force units) for 10 minutes at 2–4° C. and the supernatant was thereafter transferred into fresh pre-cooled test tube containing 1 ml of acetonitrile. The tubes were vortex mixed for a few seconds and subsequently centrifuged at 4000 g for 5 minutes at 2–4° C., to remove the precipitated protein. Each supernatant was transferred into a clean test tube and evaporated to dryness under a stream of nitrogen at 55° C. The dry residue was reconstituted with 10 volumes of Tris-EDTA buffer pH 7.5 (0.05 M Tris containing 4 mM EDTA). Aliquots of 100 μl of the reconstituted solution in duplicate were used for c-GMP measurements using Amersham RIA kit, as is described in Haj-Yehia & Benet [Pharmacology, 1995, 273, 1, pp. 94–100]. Standard curves were plotted with six concentrations (0, 0.5, 1, 2, 4 and 8 pmoles of c-GMP per tube).
The NO-tolerance effect of GTN and NO-donor compounds according to the present invention was measured by following the production of c-GMP in slices of thoracic aorta of rats. Thus, the production of c-GMP was measured as described in the methods section above for the reference NO-donor compound GTN, and for the NO-donors of the present invention Pet-2, Pet-3, Pet-7, Pet-8, Pet-10, Pet-12, Pet-24, Pet-59, Pet-147, Pet-149, Pet-152, Pet-154 and Pet-155.

[4] = tested on: anesthetized hypertensive Sprague-Dawley male rats; experiment: Hypotensive effects: mean arterial pressure after iv bolus in phenylephrine-treated rats; format: in vivo; conditions: rat
Method: Mean arterial pressure (MAP) was monitored and determined during bolus infusion of Pet-2, Pet-3, Pet-7, Pet-8, Pet-12 and Pet-13. Briefly, polyethylene catheters (PE50) were inserted into the carotid artery and into the jugular vein of anesthetized hypertensive Sprague-Dawley male rats (200–300 grams). A blood pressure recorder was placed within the carotid artery. Phenylephrine (0.1 mg) was then injected and the mean arterial blood pressure (MABP) was monitored continuously until a stable baseline was reached. The hypotensive effects of intravenous (iv) bolus doses (0.1 mg of each tested compound) administered intravenously at the jugular vein in minimal volume of vehicle (0.2 ml per dose) were evaluated. Five minutes were allowed between each dose, during which the maximal decrease in MAP was recorded and a dose-response graph comparing the hypotensive effect of the compounds was constructed.

Male Sprague Dawley rats = experiment: Induction of in vivo nitrate tolerance: cGMP in aorta of rats infused with the compound; set-up: species or system rat; conditions: for level of cGMP following a repeated treatment in vivo: aorta of rats pre-treated in vivo, re-exposed to 1 μM; for in vivo tolerance induction: cGMP in aorta of rats pre-treated in vivo with the compound, 200 μg/hour for 16 hours
Method: For c-GMP levels and tolerance development, the rat's thoracic aorta was isolated after exposure to the tested compound in vivo, and measured as described above in the in vitro assays.
Male Sprague Dawley rats (220 to 250 grams) were housed under constant temperature and humidity conditions. Light was maintained at a 12/12 light dark cycle. Except for 12 hours before the experiment, when food fasting was initiated, all rats had free access to standard rat pellet diet and tap water. The animals were anesthetized by intraperitoneal injection of ketamine and xylazine combination (50 and 10 milligram per kilogram, respectively). […] The catheters were filled with normal saline solution containing 1000 IU/ml of heparin and plugged with a metal pin. Catheters were externalized to the back of the neck region and secured by a polyester felt disk.
After implantation, the rats were individually housed until they regained their preoperative weight and appeared healthy (3 to 4 days post-operation). At this time point (day 0), an osmotic mini-pump (Alza Corp., Palo Alto, Calif.) delivering constant volume (10 μl/hour) of vehicle or drug was connected to one of the intravenous catheters.
For inducing tolerance to the tested NO-donor according to the present invention, the animals received 200 μg/hour of the tested compound for 16 hours (short-term-induced tolerance). A similar number of animals were processed by the same surgical procedure and received the vehicle alone (10 μl/hour of a solution consisting of 30% ethanol and 30% propylene glycol in sterile distilled water for injection).
At the end of the infusion periods used for the development of tolerance (16 hour), the rats were anesthetized as described above, the two catheters were externalized and the delivering catheters were disconnected from the mini-pump. The abdomen was opened by midline incision and the thoracic aorta were isolated, washed and cleaned from the surrounding tissues. Strips of the treated aortas were pooled in chambers containing Krebs-Hanseliet buffer (10 ml), and exposed to 1 μM of the tested NO-donor (final concentration) for 120 seconds. The tissues were quickly collected and frozen in liquid nitrogen for cGMP measurement, described hereinabove.

[5] = vasorelaxation, rat aortic rings contracted with 1 μM epinephrine, 10^−10 M to 10^−5 M, read-out: Concentration
[6] = vasorelaxation, rat aortic rings contracted with 1 μM epinephrine, given as negative log value, read-out: EC50 (converted)
[7] = vasorelaxation of rings pre-exposed to 0.44 mM of the same compound for 1 hour, given as negative log value, read-out: EC50 (converted)
[8] = vasorelaxation of rings pre-exposed to 0.44 mM of the same compound for 1 hour, read-out: Concentration

Compound	EC50 (isolated rat aorta [1]; [5]) [nM]	EC50 (isolated rat aorta [1]; [6]) [nM]	EC50 (isolated rat aorta [2]; [7]) [nM]	EC50 (isolated rat aorta [2]; [8]) [nM]	tolerance induction in vitro (isolated rat aorta [2])	c-GMP level following a repeated treatment [3]	cGMP Post-infusion [3] [pmol/g tissue]	cGMP Pre-infusion [3] [pmol/g tissue]	hypotensive effect on MAP following successive administrations [4]	level of cGMP following a repeated treatment in vivo (Male Sprague Dawley rats)	in vivo tolerance induction (Male Sprague Dawley rats)	EC50 (isolated rat aorta [1]; Rattus norvegicus) [nM]	EC50 (isolated rat aorta [1]; Rattus norvegicus, read-out: Concentration) [nM]	vasorelaxation effect as compared with glyceryltrinitrate (isolated rat aorta [1]; isolated rat aorta, 1 μM epinephrine)	EC50 (isolated rat aorta [2]; 1 h) [nM]	EC50 (isolated rat aorta [2]; 1 h, read-out: Concentration) [nM]	vasorelaxation in rings pre-treated with GTN (cross-tolerance, words) (isolated rat aorta [2]; rings made tolerant to GTN)	tolerance after pre-treatment with Pet-12, to itself and to GTN (isolated rat aorta [2]; rings pre-treated with Pet-12)
O=[N+]([O-])OCC(CO[N+](=O)[O-])O[N+](=O)[O-] [GTN, glyceryl trinitrate, reference compound]	44.7	28.2	31.6	44.7	tolerance induced	significantly reduced	45 ± 12	127 ± 11	attenuation	decreased	tolerance inducing effect							
CCc1nc(C)c(CCO[N+](=O)[O-])s1 [Pet-2, 2-Ethyl-4-methyl-5-(2-nitrooxy-ethyl)-thiazole]							140 ± 13	143 ± 13		remained substantially unchanged	absence of tolerance induction; also recorded: absence of tolerance effect	25.1	25.1	superior	39.8	39.8		
Cc1nc(-c2cccnc2)sc1CCO[N+](=O)[O-] [Pet-12, 3-[4-Methyl-5-(2-nitrooxy-ethyl)-thiazole-2-yl]-pyridine]	39.8	39.8	63.1	63.1	absence of tolerance induction		112 ± 12	127 ± 11			absence of tolerance induction; also recorded: absence of tolerance effect; also recorded: lack of tolerance induction						absence of tolerance induction effect; also recorded: no effect	absence of tolerance induction effect; also recorded: does not evoke tolerance
